Laboratory results from US6677277B1, “Substituted sulphonyl amino(thio)carbonyl compounds and their use as herbicides” (Bayer Aktiengesellschaft, priority 1996, dated 2004).

Assays:
weeds [1] = assay: Post-emergence test; assay type: in vivo; conditions: cf. Tables B-1 to B-4
Protocol: (§1) Post-emergence Test Solvent: 5 parts by weight of acetone Emulsifier: 1 part by weight of alkylaryl polyglycol ether To produce a suitable preparation of active compound, 1 part by weight of active compound is mixed with the stated amount of solvent, the stated amount of emulsifier is added and the concentrate is diluted with water to the desired concentration. Test plants which have a height of 5-15 cm are sprayed with the preparation of the active compound in such a way as to apply the particular amounts of active compound desired per unit area. The concentration of the spray liquor is chosen so that the particular amounts of active compound desired are applied in 1000 l of water/ha. After three weeks, the degree of damage to the plants is rated in % damage in comparison to the development of the untreated control. The figures denote: [table]

Amaranthus [2] = assay: Post-emergence test/greenhouse; assay type: in vivo; conditions: Table B-4, post-emergence, 60 g ai./ha, rated after three weeks vs untreated control
Protocol: as §1

Xanthium = assay: Post-emergence test/greenhouse; assay type: in vivo; conditions: for Xanthium, % damage: rated after three weeks vs untreated control; for % damage, Xanthium: after three weeks
Protocol: as §1

Ipomoea = assay: Post-emergence test/greenhouse; assay type: in vivo; conditions: for % damage, Ipomoea: after three weeks
Protocol: as §1

Stellaria = assay: Post-emergence test/greenhouse; assay type: in vivo; conditions: for % damage, Stellaria: after three weeks
Protocol: as §1

Solanum [3] = assay: Post-emergence test/greenhouse; assay type: in vivo; conditions: for Solanum, % damage: rated after three weeks vs untreated control; for % damage, Solanum: after three weeks
Protocol: as §1

Sorghum [4] = assay: Post-emergence test/greenhouse; assay type: in vivo; conditions: for Sorghum, % damage: rated after three weeks vs untreated control; for % damage, Sorghum: after three weeks
Protocol: as §1

Wheat [5] = assay: Post-emergence test/greenhouse; assay type: in vivo; conditions: 60 g ai./ha; for % damage, Wheat: after three weeks
Protocol: as §1

weeds [6] = assay: Pre-emergence test; assay type: in vivo; conditions: cf. Tables A-1 to A-5
Protocol: (§2) Pre-emergence Test Solvent: 5 parts by weight of acetone Emulsifier: 1 part by weight of alkylaryl polyglycol ether To produce a suitable preparation of active compound, 1 part by weight of active compound is mixed with the stated amount of solvent, the stated amount of emulsifier is added and the concentrate is diluted with water to the desired concentration. Seeds of the test plants are sown in normal soil. After about 24 hours, the soil is sprayed with the preparation of the active compound in such a way as to apply the particular amounts of active compound desired per unit area The concentration of the spray liquor is chosen so that the particular amounts of active compound desired are applied in 1000 l of water/ha. After three weeks, the degree of damage to the plants is rated in % damage in comparison to the development of the untreated control. The figures denote: [table]

Lolium [7] = assay: Pre-emergence test/greenhouse; assay type: in vivo; conditions: after three weeks
Protocol: as §2

Amaranthus [8] = assay: Pre-emergence test/greenhouse; assay type: in vivo; conditions: after three weeks
Protocol: as §2

Matricaria = assay: Pre-emergence test/greenhouse; assay type: in vivo; conditions: after three weeks
Protocol: as §2

Solanum [9] = assay: Pre-emergence test/greenhouse; assay type: in vivo; conditions: after three weeks
Protocol: as §2

Sorghum [10] = assay: Pre-emergence test/greenhouse; assay type: in vivo; conditions: after three weeks
Protocol: as §2

Chenopodium = assay: Pre-emergence test/greenhouse; assay type: in vivo; conditions: after three weeks
Protocol: as §2

Maize = assay: Pre-emergence test/greenhouse; assay type: in vivo; conditions: after three weeks
Protocol: as §2

Alopecurus [11] = assay: Pre-emergence test/greenhouse; assay type: in vivo; conditions: after three weeks
Protocol: as §2

Lolium [12] = assay: Post-emergence test/greenhouse; assay type: in vivo; conditions: after three weeks
Protocol: as §1

Alopecurus [13] = assay: Post-emergence test/greenhouse; assay type: in vivo; conditions: after three weeks
Protocol: as §1

[14] = log P n-octanol/water by the HPLC method; assay type: physicochemical; conditions: at pH 2, eluent acetonitrile containing 1% of H3PO4
Soya beans = assay: Pre-emergence test/greenhouse; assay type: in vivo; conditions: 125 g ai./ha, after three weeks
Protocol: as §2

Veronica = assay: Pre-emergence test/greenhouse; assay type: in vivo; conditions: 60 g ai./ha, after three weeks
Protocol: as §2

Wheat [15] = assay: Pre-emergence test/greenhouse; assay type: in vivo; conditions: 60 g ai./ha, after three weeks
Protocol: as §2

[16] = Table B-4, post-emergence, 60 g ai./ha
[17] = 60 g ai./ha, rated after three weeks vs untreated control

Structure (SMILES)	activity against weeds (weeds [1])	activity against weeds (weeds [6])	% damage, Lolium (Lolium [7]; 60 g ai./ha) [%]	% damage, Amaranthus (Amaranthus [8]; 60 g ai./ha) [%]	% damage, Solanum (Solanum [9]; 60 g ai./ha) [%]	% damage, Sorghum (Sorghum [10]; 60 g ai./ha) [%]	% damage, Chenopodium (Chenopodium; 60 g ai./ha) [%]	% damage, Alopecurus (Alopecurus [11]; 60 g ai./ha) [%]	% damage, Lolium (Lolium [7]; 125 g ai./ha) [%]	% damage, Amaranthus (Amaranthus [8]; 125 g ai./ha) [%]	% damage, Matricaria (Matricaria; 125 g ai./ha) [%]	% damage, Solanum (Solanum [9]; 125 g ai./ha) [%]	% damage, Sorghum (Sorghum [10]; 125 g ai./ha) [%]	% damage, Chenopodium (Chenopodium; 125 g ai./ha) [%]	% damage, Maize (Maize; 125 g ai./ha) [%]	% damage, Alopecurus (Alopecurus [11]; 125 g ai./ha) [%]	other results
CCc1nn(C(=O)NS(=O)(=O)c2c(C)cccc2SC)c(=O)n1C [Example 49]	very strong activity	–	–	–	–	–	–	–	–	–	–	–	–	–	–	–	Amaranthus, % damage (Amaranthus [2]): 95%; Xanthium, % damage (Xanthium; [16]): 95%; Xanthium, % damage (Xanthium; post-emergence, 60 g ai./ha): 95%; Ipomoea, % damage (Ipomoea; [17]): 90%; Stellaria, % damage (Stellaria; [17]): 70%; Solanum, % damage (Solanum [3]; [16]): 90%; Solanum, % damage (Solanum [3]; post-emergence, 60 g ai./ha): 90%; Sorghum, % damage (Sorghum [4]; [16]): 90%; Sorghum, % damage (Sorghum [4]; post-emergence, 60 g ai./ha): 90%; Wheat, % damage (Wheat [5]; rated after three weeks vs untreated control): 20%
CCOc1nn(C(=O)NS(=O)(=O)c2c(OC)cccc2SC)c(=O)n1C [Example 20]	very strong activity	very strong activity	95	100	100	100	100	100	–	–	–	–	–	–	–	–	% damage, Matricaria (Matricaria; 60 g ai./ha): 100%; % damage, Maize (Maize; 60 g ai./ha): 0%; % damage, Lolium (Lolium [12]; 60 g ai./ha): 90%; % damage, Xanthium (Xanthium; post-emergence, 60 g ai./ha): 95%; % damage, Ipomoea (Ipomoea; 60 g ai./ha): 95%; % damage, Stellaria (Stellaria; 60 g ai./ha): 100%; % damage, Solanum (Solanum [3]; post-emergence, 60 g ai./ha): 100%; % damage, Sorghum (Sorghum [4]; post-emergence, 60 g ai./ha): 100%; % damage, Alopecurus (Alopecurus [13]; 60 g ai./ha): 95%; % damage, Wheat (Wheat [5]): 20%
CCOc1nn(C(=O)NS(=O)(=O)c2c(OC)cccc2SCC)c(=O)n1C [Example 7]	very strong activity	very strong activity	–	–	–	–	–	–	100	100	70	100	90	100	0	100	% damage, Lolium (Lolium [12]; 60 g ai./ha): 95%; % damage, Ipomoea (Ipomoea; 60 g ai./ha): 95%; % damage, Stellaria (Stellaria; 60 g ai./ha): 100%; % damage, Solanum (Solanum [3]; post-emergence, 60 g ai./ha): 95%; % damage, Sorghum (Sorghum [4]; post-emergence, 60 g ai./ha): 95%; % damage, Alopecurus (Alopecurus [13]; 60 g ai./ha): 95%; % damage, Wheat (Wheat [5]): 10%
COc1nn(C(=O)NS(=O)(=O)c2c(SCC(F)F)cccc2C(F)(F)F)c(=O)n1C1CC1 [Example 100]	–	–	–	–	–	–	–	–	–	–	–	–	–	–	–	–	log P [14]: (log P = 2.96)
CCOc1nn(C(=O)NS(=O)(=O)c2c(OC(F)(F)F)cccc2SC(C)C)c(=O)n1C [Example 25]	–	very strong activity	–	–	–	–	–	–	70	95	95	100	80	100	0	100	% damage, Soya beans (Soya beans): 20%
CCOc1nn(C(=O)NS(=O)(=O)c2c(OC(F)(F)F)cccc2SC)c(=O)n1C [Example 35]	–	very strong activity	95	100	95	90	100	100	–	–	–	–	–	–	–	–	% damage, Veronica (Veronica): 100%; % damage, Wheat (Wheat [15]): 10%
CCSc1cccc(OC(F)(F)F)c1S(=O)(=O)NC(=O)n1nc(SC)n(C)c1=O [Example 41]	–	very strong activity	–	–	–	–	–	–	80	100	100	100	90	100	10	100	% damage, Soya beans (Soya beans): 20%
CCSc1cccc(OC)c1S(=O)(=O)NC(=O)n1nc(OC)n(C)c1=O [Example 30]	very strong activity	very strong activity	100	95	95	95	90	100	–	–	–	–	–	–	–	–	% damage, Matricaria (Matricaria; 60 g ai./ha): 95%; % damage, Maize (Maize; 60 g ai./ha): 0%; % damage, Lolium (Lolium [12]; 125 g ai./ha): 90%; % damage, Xanthium (Xanthium; post-emergence, 125 g ai./ha): 100%; % damage, Ipomoea (Ipomoea; 125 g ai./ha): 90%; % damage, Stellaria (Stellaria; 125 g ai./ha): 100%; % damage, Solanum (Solanum [3]; post-emergence, 125 g ai./ha): 100%; % damage, Sorghum (Sorghum [4]; post-emergence, 125 g ai./ha): 100%; % damage, Alopecurus (Alopecurus [13]; 125 g ai./ha): 95%
